Experimental data published in ChEMBL document CHEMBL1125190, “Synthesis and anticancer and antiviral activities of various 2'- and 3'-methylidene-substituted nucleoside analogues and crystal structure of 2'-deoxy-2'-methylidenecytidine hydrochloride” (J Med Chem, 1991).
Calls of active or inactive are those of the source. No cut-off for these calls is given here.

Tests used:
[1] = system: Human alphaherpesvirus 1; test: Concentration required to inhibit 90% of virus yield during 24-h growth period in HSV-1 cell lines; assay type: functional
[2] = system: HSV-2; test: Concentration required to inhibit 90% of virus yield during 24-h growth period in HSV-2 cell lines; assay type: functional, Human alphaherpesvirus 2
[3] = system: CCRF S-180; test: Concentration required to inhibit replication of S-180 cell lines by 50% after 72 hr incubation; assay type: functional; conditions: Mus musculus, CCRF S-180, 72 h; read-out: ED50 (the source's name)
[4] = system: CCRF-CEM; test: Concentration required to inhibit replication of CCRF-CEM cell lines by 50% after 72 hr incubation; assay type: functional; conditions: Homo sapiens, read-out: ED50 (the source's name)
[5] = system: L1210; test: Concentration required to inhibit replication of L1210 cell lines by 50% after 72 hr incubation; assay type: functional; conditions: Mus musculus, L1210, 72 h; read-out: ED50 (the source's name)
[6] = system: P388; test: Concentration required to inhibit replication of P388 cell lines by 50% after 72 hr incubation; assay type: functional; conditions: Mus musculus, P388, 72 h; read-out: ED50 (the source's name)
[7] = system: L1210; test: (§1) Ratio of survival time of treated to control mice at 75 mg/kg; assay type: functional, Mus musculus
[8] = system: L1210; test: (§2) Ratio of survival time of treated to control mice at 50 mg/kg; assay type: functional, Mus musculus
[9] = system: L1210; test: (§3) Average survival time includes only those mice that died prior to day 60 at 50 mg/kg; assay type: functional, Mus musculus
[10] = system: L1210; test: (§4) Average survival time includes only those mice that died prior to day 60 at 75 mg/kg; assay type: functional, Mus musculus
[11] = system: L1210; test: (§5) Average survival time includes only those mice that died prior to day 60 at 25 mg/kg; assay type: functional, Mus musculus
[12] = system: L1210; test: (§6) Ratio of survival time of treated to control mice at 25 mg/kg; assay type: functional, Mus musculus
[13] = system: CCRF-CEM; test: Concentration required to inhibit replication of CCRF-CEM deoxycytidine kinase deficient variant CCRF-CEM(dCK-); assay type: functional; conditions: Homo sapiens, read-out: ED50 (the source's name)
[14] = system: Mus musculus; test: as §6; assay type: functional
[15] = system: Mus musculus; test: T/C*100 represents the ratio of survival time of treated to control mice *100 at 50 mg/kg; assay type: functional
[16] = system: Mus musculus; test: as §3; assay type: functional
[17] = system: Mus musculus; test: as §4; assay type: functional
[18] = system: Mus musculus; test: T/C*100 represents the ratio of survival time of treated to control mice *100 at 75 mg/kg; assay type: functional
[19] = system: Mus musculus; test: as §5; assay type: functional
[20] = system: Mus musculus; test: Long time survivors are the number mice that survived for >60 days relative to the number of treated mice at 75 mg/kg; 0 / 5; assay type: functional, organism-based; set-up: dose 75 mg/kg
[21] = system: Mus musculus; test: Death due to toxicity occurring at a maximum body weight decrease of 10 to 22% from the average post injection body weight at 75 mg/kg; 5 / 5; assay type: functional, organism-based; set-up: dose 75 mg/kg
[22] = system: Mus musculus; test: Death due to toxicity occurring at a maximum body weight decrease of 10 to 22% from the average post injection body weight at 50 mg/kg; 5 / 5; assay type: functional, organism-based; set-up: dose 50 mg/kg
[23] = system: Mus musculus; test: Death due to toxicity occurring at a maximum body weight decrease of 10 to 22% from the average post injection body weight at 25 mg/kg; 2 / 5; assay type: functional, organism-based; set-up: dose 25 mg/kg
[24] = system: Mus musculus; test: Long time survivors are the number mice that survived for >60 days relative to the number of treated mice 25 mg/kg; 0 / 5; assay type: functional, organism-based; set-up: dose 25 mg/kg
[25] = system: Mus musculus; test: as §2; assay type: functional
[26] = system: Mus musculus; test: Long time survivors are the number mice that survived for >60 days relative to the number of treated mice at 50 mg/kg; 0 / 5; assay type: functional, organism-based; set-up: dose 50 mg/kg
[27] = system: Mus musculus; test: as §1; assay type: functional

SMILES | ID90 [1] | ID90 [2] | EC50 [3] | EC50 [4] | EC50 [5] | EC50 [6] | EC50 [13] | further results
C=C1[C@H](n2cc(F)c(=O)[nH]c2=O)O[C@H](CO)[C@H]1O | >250 µM | >250 µM | 6.5 µM | 30 µM | 22 µM | > 100 µM | – | –
C=C1[C@H](n2cc(C)c(=O)[nH]c2=O)O[C@H](CO)[C@H]1O | – | – | > 100 µM | 10 µM | > 100 µM | > 100 µM | – | –
C=C1[C@H](n2cc(F)c(N)nc2=O)O[C@H](CO)[C@H]1O | 50 µM | 5 µM | 1.5 µM | 0.05 µM | 1.2 µM | 0.6 µM | 330 µM | T/C [7]: 243; T/C [8]: 279; Average survival (days) [9]: 21.2; Average survival (days) [10]: 18.5; Average survival (days) [11]: 24; T/C [12]: 316
C=C1C(CO)OC(n2ccc(N)nc2=O)C1O (stereo not given) | >250 µM | >250 µM | > 100 µM | > 100 µM | > 100 µM | > 100 µM | – | –
C=C1[C@H](n2ccc(=O)[nH]c2=O)O[C@H](CO)[C@H]1O | 50 µM | 50 µM | > 100 µM | > 100 µM | > 100 µM | > 100 µM | – | –
C=C1C(n2ccc(N)nc2=O)O[C@H](CO)[C@@H]1O (stereo not given in full) | 26 µM | 5 µM | 1.5 µM | 0.03 µM | 0.3 µM | 0.4 µM | 77 µM | T/C [14]: 284; T/C [15]: 276; Average survival (days) [16]: 21; Average survival (days) [17]: 20.8; T/C [18]: 273; Average survival (days) [19]: 21.6
C=C1C(CO)OC(n2ccc(=O)[nH]c2=O)C1O (stereo not given) | – | – | > 100 µM | > 100 µM | > 100 µM | > 100 µM | – | –
Nc1ccn([C@@H]2O[C@H](CO)[C@@H](O)[C@@H]2O)c(=O)n1 [CYTARABINE] | – | – | 0.2 µM | 0.006 µM | 0.05 µM | 0.02 µM | 120 µM | Long-term survivors [20]: inactive; T/C [14]: 258; Toxic deaths [21]: Active; Average survival (days) [16]: 9.6; Average survival (days) [17]: 8.4; Toxic deaths [22]: Active; Toxic deaths [23]: Partially active; Average survival (days) [19]: 19.7; Long-term survivors [24]: inactive; T/C [25]: 126; Long-term survivors [26]: inactive; T/C [27]: 111
C=C1[C@H](n2cc(C)c(N)nc2=O)O[C@H](CO)[C@H]1O | 32 µM | 125 µM | > 100 µM | 22 µM | > 100 µM | > 100 µM | – | –
